The results in this text go back to ChEMBL document CHEMBL1949568, “Discovery of diphenyl lactam derivatives as N-type calcium channel blockers” (Bioorg Med Chem Lett, 2012).

Data set [1] can be described thus: Aqueous solubility of the compound at pH 7. Format: physicochemical.
The nature of data set [2]: Inhibition of N-type calcium channel by FLIPR assay.
The nature of data set [3]: Half life in rat at 5 umol/kg, iv and 30 umol/kg, po. Format: ADME, organism-based. Particulars: in vivo.
A short description of data set [4]: Volume of distribution at steady state in rat at 5 umol/kg, iv and 30 umol/kg, po. Particulars: in vivo, read-out: Vdss. The data set is classed as ADME, organism-based.
Data set [5] is described as follows: Plasma clearance in rat at 5 umol/kg, iv and 30 umol/kg, po. Format: ADME, organism-based.
A short description of data set [6]: AUC in rat at 30 umol/kg, po. The data set is classed as ADME, organism-based. As to conditions: plasma.
Data set [7] is described as follows: Oral bioavailability in rat at 30 umol/kg. Format: ADME, organism-based. Particulars: in vivo.
The nature of data set [8]: Metabolic stability in rat liver microsomes assessed as compound remaining after 30 mins. The data set is classed as ADME, Microsome. Particulars: read-out: Stability. For orientation: Microsomes from liver hold many membrane-bound enzymes, among them those of drug oxidation.
Data set [9] in a line: Half life in rat at 3 umol/kg, po. Format: ADME, organism-based. Particulars: in vivo.
For data set [10], the system named is Rattus norvegicus. The data set is described as follows: Volume of distribution at steady state in rat at 3 umol/kg, po. Particulars: in vivo. The data set is classed as ADME, organism-based.
Data set [11] is described as follows: Metabolic stability in human liver microsomes assessed as compound remaining after 30 mins. As to conditions: read-out: Stability. The data set is classed as ADME, Microsome.
The nature of data set [12]: AUC in rat at 3 umol/kg, po. Format: ADME, organism-based. As to conditions: plasma.
The test system of data set [13] is Rattus norvegicus. The data set is described as follows: Antinociceptive activity in rat capsaicin model of secondary mechanical hyperalgesia assessed as inhibition of tactile allodynia at 30 mg/kg, po. Format: functional, organism-based. The arrangement: dose 30 mg/kg.
The nature of data set [14]: Oral bioavailability in rat at 3 umol/kg. The data set is classed as ADME, organism-based. Particulars: in vivo.
Data set [15] is described as follows: Plasma clearance in rat at 3 umol/kg, po. Format: ADME, organism-based.
In data set [16] the test system is Rattus norvegicus. The data set is described as follows: Antinociceptive activity in rat capsaicin model of secondary mechanical hyperalgesia assessed as inhibition of tactile allodynia at 150 mg/kg, po. The data set is classed as functional, organism-based. The arrangement: dose 150 mg/kg.

≈ marks a conversion by molar mass, not a printed value. Calls of active or inactive are those of the source. The rule behind the calls is not given here.

A word on the solubility: it is the concentration that dissolves in the medium under given conditions. A lower solubility goes with a poorly soluble substance. A word on the IC50: it is the concentration needed to halve the response being measured. Broadly, the pIC50 is −log10 of the IC50, conventionally taken in molar units. `O=C(CN1CCC(c2ccccc2)(c2ccccc2)C1=O)N1CCN(Cc2ccc(F)cc2)CC1` showed a solubility in data set [1] of 57 µM (≈ 26.9 µg/mL). Moreover, in [2], the IC50 stood at 2.22 µM and the pIC50 turned out to be 5.65.
Consider `O=C(CN1CCCC(c2ccccc2)(c2ccccc2)C1=O)N1CC(c2ccc(C(F)(F)F)cc2)C1`, for which the solubility in data set [1] is below 25 µM. Besides, in data set [2], the IC50 amounted to 3.07 µM and the pIC50 came to 5.51.
Turning to `O=C(CN1CCC(c2ccc(F)cc2)(c2ccc(F)cc2)C1=O)N1CCN(Cc2cccc(C(F)(F)F)c2)CC1`, the solubility in data set [1] was below 25 µM. For the same molecule, in [2], the IC50 came to 1.01 µM and the pIC50 stood at 6.
The corresponding values for `O=C(CN1CCC(c2ccccc2)(c2ccccc2)C1=O)N1CCN(C(c2ccccc2)c2ccc(Cl)cc2)CC1` (stereo not drawn) are below 25 µM, 1.01 µM and 5.99.
`O=C(CN1CCCC(c2ccccc2)(c2ccccc2)C1=O)N1CCC(C(c2ccccc2)c2ccccc2)CC1` registered a solubility in data set [1] below 25 µM. Further, in data set [2], the IC50 is 2.61 µM and the pIC50 came out at 5.58.
In general, half-life refers to the time in which the quantity being followed falls by half. High values mean slow loss, low ones fast loss. As usually defined, the AUC is the area under the concentration-time curve, a measure of exposure. The term bioavailability denotes dose-corrected exposure relative to a reference, in per cent. Low values mean poor availability, high ones good availability. `O=C(CN1CCCC(c2ccccc2)(c2ccccc2)C1=O)N1CCC(c2ccccc2)(c2ccccc2)CC1` gave a half-life in data set [3] of 6.3 h. The Vd in [4] is 11.4 L/kg. Besides, the solubility in data set [1] is below 25 µM. In data set [5], this molecule gave a clearance of 45 mL/min/kg. For the same molecule, in data set [2], the IC50 was 0.66 µM and the negative logarithm of the IC50 (pIC50) turned out to be 6.18. Further, in [6], the AUC is 2990 ng·h/mL. In data set [7], this molecule showed a bioavailability of 50%.
One may read the CL/F as the apparent clearance, not corrected for the fraction that reaches the circulation. `O=C(CN1CCC(c2ccc(F)cc2)(c2ccc(F)cc2)C1=O)N1CCN(C(c2ccccc2)c2ccccc2)CC1`: the remaining at 0.5 h came out at 2% in data set [8] and 2.5% in data set [11]. The same molecule gave a half-life in data set [9] of 7.2 h. The molecule also returned a solubility in data set [1] below 25 µM. In data set [10], this molecule showed a Vdss of 13.2 L/kg. Also, the AUC in data set [12] amounted to 160 ng·h/mL. Further, the IC50 in [2] amounted to 0.83 µM. For the same molecule, the pIC50 in data set [2] came to 6.08. Besides, in data set [13], the inhibition result is “Active”. This molecule came in with a bioavailability in data set [14] of 20.3%. Further, in data set [15], the apparent clearance CL/F was 36.7 mL/min/kg.
Regarding `O=C(CN1CCC(c2ccccc2)(c2ccccc2)C1=O)N1CCN(C(c2ccccc2)c2ccc(F)cc2)CC1` (stereo not drawn), the solubility in [1] is below 25 µM. Also, in [2], the IC50 amounted to 0.45 µM and the pIC50 turned out to be 6.35.
Take `O=C(CN1CCCC(c2ccccc2)(c2ccccc2)C1=O)N1CCC(C(O)(c2ccccc2)c2ccccc2)CC1`: the solubility in [1] is below 25 µM. Further, in [2], the IC50 turned out to be 1.74 µM and the pIC50 was determined as 5.76.
As for `O=C(CN1CCC(c2ccccc2)(c2ccccc2)C1=O)N1CCN(Cc2c(Cl)cccc2Cl)CC1`, the solubility in data set [1] is below 25 µM. In data set [2], the IC50 worked out at 0.9 µM and the pIC50 stood at 6.04.
The corresponding values for `O=C(CN1CCC(c2ccccc2)(c2ccccc2)C1=O)N1CCN(C(c2ccc(F)cc2)c2ccc(F)cc2)CC1` are below 25 µM, 0.43 µM and 6.37.
For `O=C(CN1CCCC(c2ccccc2)(c2ccccc2)C1=O)N1CCN(Cc2ccc(Cl)cc2Cl)CC1`, in data set [1], the solubility was below 25 µM. For the same molecule, in data set [2], the IC50 was 1.8 µM and the pIC50 came to 5.75.
As to `O=C(CN1CCC(c2ccccc2)(c2ccccc2)C1=O)N1CCN(C(c2ccccc2)c2ccccc2)CC1`, in data set [8], the remaining at 0.5 h was found to be 0.4%. For the same molecule, the half-life in data set [9] was 5.6 h. In [1], this molecule had a solubility below 25 µM. In [10], this molecule had a Vdss of 6.9 L/kg. This molecule also yielded an AUC in data set [12] of 159 ng·h/mL. For the same molecule, in data set [2], the IC50 came to 0.72 µM and the pIC50 came out at 6.14. Further, the inhibition entry in data set [13] is “Active”. This molecule came in with a bioavailability in data set [14] of 16.4%. In addition, the CL/F in [15] was 26.7 mL/min/kg.
Turning to `O=C(CN1CCCC(c2ccccc2)(c2ccccc2)C1=O)N1CCN(Cc2cccc(C(F)(F)F)c2)CC1`, the remaining at 0.5 h in [8] is 1.2%. The molecule also showed a half-life in data set [3] of 2.7 h. The Vd in [4] worked out at 5.9 L/kg. The solubility in data set [1] was below 25 µM. Moreover, in [11], the remaining at 0.5 h came out at 0.1%. In data set [5], this molecule had a clearance of 41.7 mL/min/kg. Moreover, in [2], the IC50 is 0.93 µM and the pIC50 was found to be 6.03. Moreover, the exposure (AUC) in data set [6] amounted to 1000 ng·h/mL. The bioavailability in data set [7] amounted to 15.6%.
`O=C(CN1CCCC(c2ccccc2)(c2ccccc2)C1=O)N1CCN(C(c2ccc(F)cc2)c2ccc(F)cc2)CC1` returned a solubility in data set [1] below 25 µM. Besides, in data set [2], the IC50 worked out at 2.36 µM and the pIC50 is 5.63.
Molecule `O=C(CN1CCCC(c2ccccc2)(c2ccccc2)C1=O)N1CCC(c2ccccc2)(c2ccccc2)C1` showed a solubility in [1] below 25 µM. For the same molecule, in data set [2], the IC50 was 2.43 µM and the pIC50 came to 5.61.
Taken in the same sequence, the figures for `O=C(CN1CCCC(c2ccccc2)(c2ccccc2)C1=O)N1CCCC(c2ccccc2)(c2ccccc2)C1` were below 25 µM, 0.81 µM and 6.09.
In the case of `O=C(CN1CCCC(c2ccccc2)(c2ccccc2)C1=O)N1CCN(C(c2ccccc2)c2ccccc2)CC1`, the remaining at 0.5 h in data set [8] and in data set [11] was 0.1% in each case. This molecule gave a half-life in data set [9] of 5.2 h. Besides, the solubility in data set [1] is below 25 µM. The molecule also came in with a Vdss in [10] of 5.8 L/kg. The AUC in data set [12] is 186 ng·h/mL. Further, the IC50 in [2] turned out to be 1.38 µM. Further, in data set [2], the pIC50 turned out to be 5.86. The inhibition result in data set [13] was “Active”. In addition, the bioavailability in [14] stood at 16.6%. In [15], the CL/F is 25 mL/min/kg.
Molecule `O=C(CN1CCCC(c2ccccc2)(c2ccccc2)C1=O)N1CCN(Cc2ccc(C(F)(F)F)cc2)CC1` had a solubility in data set [1] below 25 µM. For the same molecule, in data set [2], the IC50 stood at 1.38 µM and the pIC50 was found to be 5.86.
`O=C(CN1CCCC(c2ccc(F)cc2)(c2ccc(F)cc2)C1=O)N1CCN(C(c2ccccc2)c2ccccc2)CC1` had a solubility in [1] below 25 µM. Further, in data set [2], the IC50 was found to be 4.61 µM and the pIC50 is reported as 5.34.
As to `O=C(CN1CCCC(c2ccccc2)(c2ccccc2)C1=O)N1CCc2ccc(C(F)(F)F)cc2C1`, the solubility in data set [1] is below 25 µM. Moreover, in [2], the IC50 worked out at 4.44 µM and the negative-log IC50 (pIC50) came to 5.35.
In the case of `NCC1(CC(=O)O)CCCCC1`, in data set [16], the inhibition entry was “Active”.
In data set [1], `O=C(CN1CCC(c2ccccc2)(c2ccccc2)C1=O)N1CCN(Cc2ccc(Cl)cc2Cl)CC1` gave a solubility below 25 µM. In addition, in data set [2], the IC50 was determined as 0.52 µM and the pIC50 worked out at 6.28.
With `O=C(CN1CCC(c2ccccc2)(c2ccccc2)C1=O)N1CCN(Cc2cccc(C(F)(F)F)c2)CC1`, the remaining at 0.5 h in data set [8] stood at 0.1%. In data set [1], this molecule yielded a solubility below 25 µM. Besides, the remaining at 0.5 h in [11] came to 0.3%. Further, in data set [2], the IC50 was 1.03 µM and the pIC50 came out at 5.99.
With `O=C(CN1CCCC(c2ccccc2)(c2ccccc2)C1=O)N1CCN(Cc2cccc(Cl)c2)CC1`, the solubility in [1] was below 25 µM. In data set [2], the IC50 turned out to be 1.32 µM and the pIC50 is given as 5.88.
In data set [1], `O=C(CN1CCCC(c2ccc(F)cc2)(c2ccc(F)cc2)C1=O)N1CCN(Cc2cccc(C(F)(F)F)c2)CC1` came in with a solubility below 25 µM. In data set [2], the IC50 amounted to 1.36 µM and the pIC50 is given as 5.87.
For the molecule `O=C(CN1CCCC(c2ccccc2)(c2ccccc2)C1=O)N1CCC(NC(c2ccccc2)c2ccccc2)CC1`, the remaining at 0.5 h in [8] and in data set [11] was below 0.1% in each case. In [1], this molecule showed a solubility below 25 µM. Moreover, the IC50 in [2] was 0.81 µM. For the same molecule, the pIC50 in data set [2] was 6.09.
